Here are results for 13 molecules from patent publication US12403137B2, “Compounds and methods of use” (Tango Therapeutics, Inc., priority 2019, dated 2025).

The IC50 is the midpoint of a concentration-inhibition curve.

For experiment [1], the system named is HAP1 MTAP-deleted cell line. Description: SDMA in-cell western assay, HAP1 MTAP-deleted. The class given is cell-based. Particulars: for IC50: Homo sapiens, HAP1 MTAP-deleted (MTAP-null) cell line; for MTAP Intact/Deleted Ratio: IC50 ratio HAP1 MTAP-intact / HAP1 MTAP-deleted, >=3 fold considered MTAP-selective. The procedure:
(§1) Table 1 also indicates IC50 values in an MTAP-isogenic cell line pair for exemplary compounds in an SDMA in-cell western assay (columns 7-8). HAP1 MTAP-intact is a cell line in which endogenous levels of MTAP are expressed, and HAP1 MTAP-deleted is an MTAP-null cell line. For Table 1, “a*” and “aa*” indicates an IC50 of <1 μM, “b*” and “bb*” indicates an IC50 equal to or greater than 1 μM but less than 10 μM, and “c*” and “cc*” indicates an IC50 of greater than or equal to 10 μM in the HAP1 MTAP-intact and the HAP1 MTAP-deleted assays, respectively. In column 9, “A*” indicates an IC50 ratio greater than or equal to 10 fold between the IC50 in the HAP1 MTAP-intact cell line and the HAP1 MTAP-deleted cell line; “B*” indicates an IC50 ratio greater than or equal to 3 fold but lower than 10 fold between the IC50 in the HAP1 MTAP-intact cell line and the HAP1 MTAP-deleted cell line; “C*” indicates an IC50 ratio of less than 3 fold between the IC50 in the HAP1 MTAP-intact cell line and the HAP1 MTAP-deleted cell line. Compounds with a ratio in the SDMA in-cell western assay of equal to or greater than 3 fold are considered MTAP-selective.

Experiment [2] has as its system HAP1 MTAP-intact cell line. Description: SDMA in-cell western assay, HAP1 MTAP-intact. It is filed as cell-based. The conditions noted are these: for IC50: Homo sapiens. The procedure:
as §1

For experiment [3], the target named is T1, PRMT5 (Homo sapiens, UniProt O14744).
T1 construct: purchased Viva (custom protein)
T1 sequence (O14744 whole entry): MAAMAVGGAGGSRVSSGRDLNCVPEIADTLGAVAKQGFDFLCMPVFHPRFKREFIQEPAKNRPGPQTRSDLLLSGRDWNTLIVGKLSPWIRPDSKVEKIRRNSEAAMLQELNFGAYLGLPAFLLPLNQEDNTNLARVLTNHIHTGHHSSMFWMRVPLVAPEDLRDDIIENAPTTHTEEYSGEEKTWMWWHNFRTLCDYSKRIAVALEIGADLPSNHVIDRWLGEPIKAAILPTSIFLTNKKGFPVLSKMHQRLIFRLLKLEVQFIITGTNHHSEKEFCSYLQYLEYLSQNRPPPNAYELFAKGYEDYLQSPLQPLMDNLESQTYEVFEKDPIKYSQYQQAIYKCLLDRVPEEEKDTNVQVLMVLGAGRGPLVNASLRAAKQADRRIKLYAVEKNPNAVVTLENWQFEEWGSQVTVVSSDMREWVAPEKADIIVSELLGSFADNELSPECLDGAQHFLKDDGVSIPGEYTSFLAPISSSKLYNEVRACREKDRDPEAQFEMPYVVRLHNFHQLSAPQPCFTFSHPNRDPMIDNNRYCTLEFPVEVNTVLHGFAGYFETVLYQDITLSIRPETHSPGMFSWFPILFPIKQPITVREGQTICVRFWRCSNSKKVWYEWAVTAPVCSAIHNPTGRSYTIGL
T1 sequence (Q9BQA1 whole entry partner): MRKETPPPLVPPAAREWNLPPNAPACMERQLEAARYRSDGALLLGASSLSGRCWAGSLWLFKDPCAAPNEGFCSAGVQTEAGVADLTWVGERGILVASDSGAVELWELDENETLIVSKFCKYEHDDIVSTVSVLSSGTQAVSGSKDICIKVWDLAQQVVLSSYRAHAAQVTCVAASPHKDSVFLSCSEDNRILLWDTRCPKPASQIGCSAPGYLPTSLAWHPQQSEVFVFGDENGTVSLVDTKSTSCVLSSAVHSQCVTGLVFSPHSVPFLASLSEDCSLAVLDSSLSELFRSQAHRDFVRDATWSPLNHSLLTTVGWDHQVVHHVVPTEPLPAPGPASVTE
Description: PRMT5 inhibition assay with SAM as cofactor. It is filed as biochemical. Particulars: against PRMT5 in the presence of SAM as cofactor. The source says:
(§2) The Ki values can be calculated from the IC50 values as described in the Examples section. As detailed in the Examples section, for the assay performed in the presence of SAM, IC50=Ki×1.5 (Ki=IC50/1.5). For the assay performed in the presence of MTA, IC50=Ki×13.5 (Ki=IC50/13.5). Column 6 indicates the ratio between the Ki of compounds in the presence of SAM and the Ki of compounds in the presence of MTA

The target of experiment [4] is T1, PRMT5. Description: PRMT5 inhibition assay with no cofactor. The class given is biochemical. Particulars: against PRMT5 with no cofactor; read-out: No Co-factor IC50.
Experiment [5] concerns the target T1, PRMT5. Nature of the experiment: PRMT5 inhibition assay with MTA as cofactor. The conditions noted are these: for IC50: against PRMT5 with MTA as cofactor; for SAM/MTA Ratio: ratio of Ki in the presence of SAM to Ki in the presence of MTA, Ki=IC50/1.5 (SAM), Ki=IC50/13.5 (MTA). The class given is biochemical.
From the text: as §2

With `O=C(NC[C@@H](O)[C@@H]1Cc2ccc(OCc3cnco3)cc2CN1)c1ccc(C(=O)N2CCOCC2)cc1` [Compound 1, N—((R)-2-hydroxy-2-((S)-7-(oxazol-5-ylmethoxy)-1,2,3,4-tetrahydroisoquinolin-3-yl)ethyl)-4-(morpholine-4-carbonyl)benzamide], the IC50 in experiment [1] is at least 10 µM; in experiment [2] it was at least 10 µM; at PRMT5 [3], 0.05 to 0.5 µM; at PRMT5 [4], at least 5 µM; at PRMT5 [5], 0.05 to 0.5 µM. In addition, in experiment [1], the “MTAP Intact/Deleted Ratio” value was “C* (an IC50 ratio of less than 3 fold between the IC50 in the HAP1 MTAP-intact cell line and the HAP1 MTAP-deleted cell line)”. In addition, the “SAM/MTA Ratio” value on PRMT5 [5] is “A (a Ki ratio greater than or equal to 10 fold between the Ki in the presence of SAM and the Ki in the presence of MTA)”.
With `Cn1nccc1COc1ccc2c(c1)CN[C@H]([C@H](O)CNC(=O)c1ccc(C(=O)N3CCOCC3)cc1)C2` [Compound 2, N—((R)-2-hydroxy-2-((S)-7-((1-methyl-1H-pyrazol-5-yl)methoxy)-1,2,3,4-tetrahydroisoquinolin-3-yl)ethyl)-4-(morpholine-4-carbonyl)benzamide], the IC50 in experiment [1] was at least 10 µM; in experiment [2], at least 10 µM; at PRMT5 [3], 0.05 to 0.5 µM; at PRMT5 [4] it was 0.5 to 5 µM; against PRMT5 [5] it was 0.05 to 0.5 µM. In experiment [1], the “MTAP Intact/Deleted Ratio” value is “C* (an IC50 ratio of less than 3 fold between the IC50 in the HAP1 MTAP-intact cell line and the HAP1 MTAP-deleted cell line)”. The “SAM/MTA Ratio” value on PRMT5 [5] was “A (a Ki ratio greater than or equal to 10 fold between the Ki in the presence of SAM and the Ki in the presence of MTA)”.
On to `Cc1ncoc1COc1ccc2c(c1)CN[C@H]([C@H](O)CNC(=O)c1ccc(C(=O)N3CCOCC3)cc1)C2` [Compound 3, N—((R)-2-hydroxy-2-((S)-7-((4-methyloxazol-5-yl)methoxy)-1,2,3,4-tetrahydroisoquinolin-3-yl)ethyl)-4-(morpholine-4-carbonyl)benzamide], for which the IC50 in experiment [1] was 1 to 10 µM; in experiment [2] it was at least 10 µM; on PRMT5 [3], 0.05 to 0.5 µM; at PRMT5 [4] it was 0.5 to 5 µM; at PRMT5 [5], 0.05 to 0.5 µM. The “MTAP Intact/Deleted Ratio” value in experiment [1] was “C* (an IC50 ratio of less than 3 fold between the IC50 in the HAP1 MTAP-intact cell line and the HAP1 MTAP-deleted cell line)”. Also, the “SAM/MTA Ratio” value on PRMT5 [5] is “A (a Ki ratio greater than or equal to 10 fold between the Ki in the presence of SAM and the Ki in the presence of MTA)”.
For the molecule `O=C(NC[C@@H](O)[C@@H]1Cc2ccc(OCc3cn[nH]c3)cc2CN1)c1ccc(C(=O)N2CCOCC2)cc1` [Compound 4, N—((R)-2-((S)-7-((1H-pyrazol-4-yl)methoxy)-1,2,3,4-tetrahydroisoquinolin-3-yl)-2-hydroxyethyl)-4-(morpholine-4-carbonyl)benzamide], the half-inhibitory concentration (IC50) is 1 to 10 µM in experiment [1]; at least 10 µM in experiment [2]; 0.05 to 0.5 µM on PRMT5 [3]; 0.05 to 0.5 µM at PRMT5 [4]; 0.05 to 0.5 µM against PRMT5 [5]. The “MTAP Intact/Deleted Ratio” value in experiment [1] is “C* (an IC50 ratio of less than 3 fold between the IC50 in the HAP1 MTAP-intact cell line and the HAP1 MTAP-deleted cell line)”. For the same molecule, the “SAM/MTA Ratio” value at PRMT5 [5] was “A (a Ki ratio greater than or equal to 10 fold between the Ki in the presence of SAM and the Ki in the presence of MTA)”.
For `COCCN(C)c1nc(NC2COC2)cc(C(=O)NC[C@@H](O)[C@@H]2Cc3ccc(OCc4ocnc4C)cc3CN2)n1` [Compound 37, N—((R)-2-hydroxy-2-((S)-7-((4-methyloxazol-5-yl)methoxy)-1,2,3,4-tetrahydroisoquinolin-3-yl)ethyl)-2-((2-methoxyethyl)(methyl)amino)-6-(oxetan-3-ylamino)pyrimidine-4-carboxamide], the IC50 is 0.5 to 5 µM on PRMT5 [3], at least 5 µM on PRMT5 [4] and 0.5 to 5 µM against PRMT5 [5]. The “SAM/MTA Ratio” value at PRMT5 [5] was “A (a Ki ratio greater than or equal to 10 fold between the Ki in the presence of SAM and the Ki in the presence of MTA)”.
As for `CCCN(C)c1nc(NC2COC2)cc(C(=O)NC[C@@H](O)[C@@H]2Cc3ccc(OCc4ocnc4C)cc3CN2)n1` [Compound 38, N—((R)-2-hydroxy-2-((S)-7-((4-methyloxazol-5-yl)methoxy)-1,2,3,4-tetrahydroisoquinolin-3-yl)ethyl)-2-(methyl(propyl)amino)-6-(oxetan-3-ylamino)pyrimidine-4-carboxamide], the IC50 on PRMT5 [3] was 0.5 to 5 µM; on PRMT5 [4], at least 5 µM; on PRMT5 [5], 0.5 to 5 µM. Moreover, the “SAM/MTA Ratio” value on PRMT5 [5] was “A (a Ki ratio greater than or equal to 10 fold between the Ki in the presence of SAM and the Ki in the presence of MTA)”.
Consider `Cc1ncoc1COc1ccc2c(c1)CN[C@H]([C@H](O)CNC(=O)c1cc(NC3CC4(CCC4)C3)nc(N3CCN(C(C)C)CC3)c1)C2` [Compound 70], for which the IC50 in experiment [1] was under 1 µM; in experiment [2], under 1 µM; at PRMT5 [4] it was under 0.05 µM; on PRMT5 [5], under 0.05 µM. Further, the “MTAP Intact/Deleted Ratio” value in experiment [1] was “B* (an IC50 ratio greater than or equal to 3 fold but lower than 10 fold between the IC50 in the HAP1 MTAP-intact cell line and the HAP1 MTAP-deleted cell line)”.
For `CC(=O)N1CCC(Nc2cc(C(=O)NC[C@@H](O)[C@@H]3Cc4ccc(OCc5ocnc5C)cc4CN3)cc(N3CCN(C(C)C)CC3)n2)CC1` [Compound 71], the IC50 in experiment [1] was 1 to 10 µM; in experiment [2] it was at least 10 µM; on PRMT5 [4], under 0.05 µM; on PRMT5 [5], under 0.05 µM. Besides, in experiment [1], the “MTAP Intact/Deleted Ratio” value was “B* (an IC50 ratio greater than or equal to 3 fold but lower than 10 fold between the IC50 in the HAP1 MTAP-intact cell line and the HAP1 MTAP-deleted cell line)”.
With `CC(=O)N1CCC(Nc2cc(C(=O)NC[C@@H](O)[C@@H]3Cc4ccc(OCc5ocnc5C)cc4CN3)nc(N3CCN(C(C)C)CC3)n2)CC1` [Compound 72], the IC50 in experiment [1] is under 1 µM; at PRMT5 [4], 0.05 to 0.5 µM; against PRMT5 [5] it was under 0.05 µM. In addition, the “MTAP Intact/Deleted Ratio” value in experiment [1] was “A* (an IC50 ratio greater than or equal to 10 fold between the IC50 in the HAP1 MTAP-intact cell line and the HAP1 MTAP-deleted cell line)”. For the same molecule, the “HAP1 MTAP Intact IC50” value in experiment [2] is on record as “B*”.
Turning to `Cc1ncoc1COc1ccc2c(c1)CN[C@H]([C@H](O)CNC(=O)c1cc(NC3CCC3)nc(C3CCN(C(C)C)CC3)c1)C2` [Compound 78], the IC50 in experiment [1] was under 1 µM; in experiment [2], 1 to 10 µM; on PRMT5 [4], 0.05 to 0.5 µM; at PRMT5 [5], under 0.05 µM. Moreover, the “MTAP Intact/Deleted Ratio” value in experiment [1] is “A* (an IC50 ratio greater than or equal to 10 fold between the IC50 in the HAP1 MTAP-intact cell line and the HAP1 MTAP-deleted cell line)”.
As to `COCCN(C)c1nc(NC2CCN(C(C)=O)CC2)cc(C(=O)NC[C@@H](O)[C@@H]2Cc3ccc(OCc4ocnc4C)cc3CN2)n1` [Compound 79], the IC50 in experiment [1] was under 1 µM; in experiment [2], 1 to 10 µM; on PRMT5 [4], 0.05 to 0.5 µM; on PRMT5 [5] it was under 0.05 µM. In addition, the “MTAP Intact/Deleted Ratio” value in experiment [1] is “A* (an IC50 ratio greater than or equal to 10 fold between the IC50 in the HAP1 MTAP-intact cell line and the HAP1 MTAP-deleted cell line)”.
On to `CC(=O)N1CCC(Nc2cc(C(=O)NC[C@@H](O)[C@@H]3Cc4ccc(OCc5ocnc5C)cc4CN3)nc(N3CCCC3)n2)CC1` [Compound 81], for which the IC50 was under 1 µM in experiment [1], 1 to 10 µM in experiment [2], 0.05 to 0.5 µM at PRMT5 [4] and under 0.05 µM against PRMT5 [5]. Also, the “MTAP Intact/Deleted Ratio” value in experiment [1] was “A* (an IC50 ratio greater than or equal to 10 fold between the IC50 in the HAP1 MTAP-intact cell line and the HAP1 MTAP-deleted cell line)”.
With `COCCN(C)c1nc(NC2CN(C(C)=O)C2)cc(C(=O)NC[C@@H](O)[C@@H]2Cc3ccc(OCc4ocnc4C)cc3CN2)n1` [Compound 82], the IC50 is under 1 µM in experiment [1], at least 10 µM in experiment [2], 0.05 to 0.5 µM at PRMT5 [4] and under 0.05 µM against PRMT5 [5]. Moreover, in experiment [1], the “MTAP Intact/Deleted Ratio” value is “A* (an IC50 ratio greater than or equal to 10 fold between the IC50 in the HAP1 MTAP-intact cell line and the HAP1 MTAP-deleted cell line)”.
